Reference: patent publication US12281122B1, “PI3K inhibitors” (Cogent Biosciences, Inc., priority 2023, dated 2025)
pIC50: −log10 of the molar value.

Columns and labels:
[1] = tested on: T47D (PI3Kα-H1047R) cell line; assay: HTRF phospho-AKT(S473) cell assay in T47D cells; format: cell-based, human; settings: Homo sapiens; HTRF phospho-AKT(S473), T47D (PI3Kα-H1047R) cells, 2 hours compound incubation
Procedure, shortened: (§1)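 HTRF read-out of phospho-AKT(S473) in lysates gave IC50 values after 2 h compound exposure at 37° C. Dose series was 12 points at 1:3, topping at 5 μM for T47D and 10 μM for SKBR3. Only SKBR3 received 70 ng/ml PDGF-BB during the last 15 minutes.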

[2] = tested on: SKBR3 (PI3Kα-Wild Type) cell line; assay: HTRF phospho-AKT(S473) cell assay in SKBR3 cells; format: cell-based, human; settings: Homo sapiens, SK-BR-3; HTRF phospho-AKT(S473), SKBR3 (PI3Kα-Wild Type) cells, 2 hours compound incubation, PDGF-BB stimulated
Procedure, shortened: as §1

COc1cnc(C2CCN(c3nc4c([C@@H](C)Nc5ccc(Cl)nc5C(=O)NS(C)(=O)=O)cc(C)cc4c(=O)n3C)CC2)nc1 [Compound 487, (R)-6-chloro-3-((1-(2-(4-(5-methoxypyrimidin-2-yl)piperidin-1-yl)-3,6-dimethyl-4-oxo-3,4-dihydroquinazolin-8-yl)ethyl)amino)-N-(methylsulfonyl) picolinamide]
pIC50 [1]: 6.30 to 6.60
pIC50 [2]: 5.30 to 6.00

Cc1cc([C@@H](C)Nc2ccc(Cl)nc2C(=O)NS(C)(=O)=O)c2nc(N3CCC(c4ccnn4CC(F)(F)F)CC3)n(C)c(=O)c2c1 [Compound 488, (R)-6-chloro-3-((1-(3,6-dimethyl-4-oxo-2-(4-(1-(2,2,2-trifloroethyl)-1H-pyrazol-5-yl)piperidin-1-yl)-3,4-dihydroquinazolin-8-yl)ethyl)amino)-N-(methylsulfonyl) picolinamide]
pIC50 [1]: > 6.60
pIC50 [2]: 5.30 to 6.00

Cc1cc([C@@H](C)Nc2ccc(Cl)nc2C(=O)NS(C)(=O)=O)c2nc(N3CCC(c4cnn(C)n4)CC3)n(C)c(=O)c2c1 [Compound 489, (R)-6-chloro-3-((1-(3,6-dimethyl-2-(4-(2-methyl-2H-1,2,3-triazol-4-yl)piperidin-1-yl)-4-oxo-3,4-dihydroquinazolin-8-yl)ethyl)amino)-N-(methylsulfonyl) picolinamide]
pIC50 [1]: > 6.60
pIC50 [2]: 5.30 to 6.00

Cc1cc([C@@H](C)Nc2ccc(Cl)nc2C(=O)NS(C)(=O)=O)c2nc(N3CCC(n4nc(C)cc4F)CC3)n(C)c(=O)c2c1 [Compound 490, (R)-6-chloro-3-((1-(2-(4-(5-fluoro-3-methyl-1H-pyrazol-1-yl)piperidin-1-yl)-3,6-dimethyl-4-oxo-3,4-dihydroquinazolin-8-yl)ethyl)amino)-N-(methylsulfonyl) picolinamide]
pIC50 [1]: 6.30 to 6.60
pIC50 [2]: ≤ 5.30

Cc1cc([C@@H](C)Nc2ccc(Cl)nc2C(=O)NS(C)(=O)=O)c2nc(N3C[C@@H]4[C@H](C3)[C@H]4n3cc(C)cn3)n(C)c(=O)c2c1 [Compound 491, 6-chloro-3-(((R)-1-(3,6-dimethyl-2-((1R,5S,6S)-6-(4-methyl-1H-pyrazol-1-yl)-3-azabicyclo[3.1.0]hexan-3-yl)-4-oxo-3,4-dihydroquinazolin-8-yl)ethyl)amino)-N-(methylsulfonyl) picolinamide]
pIC50 [1]: 6.30 to 6.60
pIC50 [2]: 5.30 to 6.00

Cc1cc([C@@H](C)Nc2ccc(Cl)nc2C(=O)NS(C)(=O)=O)c2nc(N3CCC(n4cc(F)c(C)n4)CC3)n(C)c(=O)c2c1 [Compound 492, (R)-6-chloro-3-((1-(2-(4-(4-fluoro-3-methyl-1H-pyrazol-1-yl)piperidin-1-yl)-3,6-dimethyl-4-oxo-3,4-dihydroquinazolin-8-yl)ethyl)amino)-N-(methylsulfonyl) picolinamide]
pIC50 [1]: 6.30 to 6.60
pIC50 [2]: 5.30 to 6.00

[2H]C([2H])([2H])n1ccc([C@H]2[C@@H]3CN(c4nc5c([C@@H](C)Nc6ccc(Cl)nc6C(=O)NS(C)(=O)=O)cc(C)cc5c(=O)n4C)C[C@@H]32)n1 [Compound 493, 6-chloro-3-(((R)-1-(3,6-dimethyl-2-((1R,5S,6R)-6-(1-(methyl-d3)-1H-pyrazol-3-yl)-3-azabicyclo[3.1.0]hexan-3-yl)-4-oxo-3,4-dihydroquinazolin-8-yl)ethyl)amino)-N-(methylsulfonyl) picolinamide]
pIC50 [1]: > 6.60
pIC50 [2]: 5.30 to 6.00

[2H]C([2H])([2H])n1nccc1[C@H]1[C@@H]2CN(c3nc4c([C@@H](C)Nc5ccc(Cl)nc5C(=O)NS(C)(=O)=O)cc(C)cc4c(=O)n3C)C[C@@H]21 [Compound 494, 6-chloro-3-(((R)-1-(3,6-dimethyl-2-((1R,5S,6R)-6-(1-(methyl-d3)-1H-pyrazol-5-yl)-3-azabicyclo[3.1.0]hexan-3-yl)-4-oxo-3,4-dihydroquinazolin-8-yl)ethyl)amino)-N-(methylsulfonyl) picolinamide]
pIC50 [1]: > 6.60
pIC50 [2]: 5.30 to 6.00

Cc1cc([C@@H](C)Nc2ccc(Cl)nc2C(=O)NS(C)(=O)=O)c2nc(N3C[C@@H]4[C@H](C3)[C@H]4c3cc(C)ncc3F)n(C)c(=O)c2c1 [Compound 495, 6-chloro-3-(((R)-1-(2-((1R,5S,6S)-6-(5-fluoro-2-methylpyridin-4-yl)-3-azabicyclo[3.1.0]hexan-3-yl)-3,6-dimethyl-4-oxo-3,4-dihydroquinazolin-8-yl)ethyl)amino)-N-(methylsulfonyl) picolinamide]
pIC50 [1]: 6.30 to 6.60
pIC50 [2]: 5.30 to 6.00

Cc1cc([C@@H](C)Nc2ccc(Cl)nc2C(=O)NS(C)(=O)=O)c2nc(N3C[C@@H]4[C@H](C3)[C@H]4c3nnn(C)n3)n(C)c(=O)c2c1 [Compound 496, 6-chloro-3-(((R)-1-(3,6-dimethyl-2-((1R,5S,6R)-6-(2-methyl-2H-tetrazol-5-yl)-3-azabicyclo[3.1.0]hexan-3-yl)-4-oxo-3,4-dihydroquinazolin-8-yl)ethyl)amino)-N-(methylsulfonyl) picolinamide]
pIC50 [1]: > 6.60
pIC50 [2]: 5.30 to 6.00

Cc1cc([C@@H](C)Nc2ccc(Cl)nc2C(=O)NS(C)(=O)=O)c2nc(N3C[C@@H]4[C@H](C3)[C@H]4c3nn(C)nc3C)n(C)c(=O)c2c1 [Compound 497, 6-chloro-3-(((R)-1-(2-((1R,5S,6R)-6-(2,5-dimethyl-2H-1,2,3-triazol-4-yl)-3-azabicyclo[3.1.0]hexan-3-yl)-3,6-dimethyl-4-oxo-3,4-dihydroquinazolin-8-yl)ethyl)amino)-N-(methylsulfonyl) picolinamide]
pIC50 [1]: > 6.60
pIC50 [2]: 5.30 to 6.00

Cc1cc([C@@H](C)Nc2ccc(Cl)nc2C(=O)NS(C)(=O)=O)c2nc(N3C[C@@H]4[C@H](C3)[C@H]4c3nnn(C)c3C)n(C)c(=O)c2c1 [Compound 498, 6-chloro-3-(((R)-1-(2-((1R,5S,6R)-6-(1,5-dimethyl-1H-1,2,3-triazol-4-yl)-3-azabicyclo[3.1.0]hexan-3-yl)-3,6-dimethyl-4-oxo-3,4-dihydroquinazolin-8-yl)ethyl)amino)-N-(methylsulfonyl) picolinamide]
pIC50 [1]: > 6.60
pIC50 [2]: 5.30 to 6.00

Cc1cc([C@@H](C)Nc2ccc(Cl)nc2C(=O)NS(C)(=O)=O)c2nc(N3CCC(c4ncc(Cl)cn4)CC3)n(C)c(=O)c2c1 [Compound 499, (R)-6-chloro-3-((1-(2-(4-(5-chloropyrimidin-2-yl)piperidin-1-yl)-3,6-dimethyl-4-oxo-3,4-dihydroquinazolin-8-yl)ethyl)amino)-N-(methylsulfonyl) picolinamide]
pIC50 [1]: 6.30 to 6.60
pIC50 [2]: ≤ 5.30

Cc1cc([C@@H](C)Nc2ccc(Cl)nc2C(=O)NS(C)(=O)=O)c2nc(N3CCC(c4ncccn4)CC3)n(C)c(=O)c2c1 [Compound 500, (R)-6-chloro-3-((1-(3,6-dimethyl-4-oxo-2-(4-(pyrimidin-2-yl)piperidin-1-yl)-3,4-dihydroquinazolin-8-yl)ethyl)amino)-N-(methylsulfonyl) picolinamide]
pIC50 [1]: 6.30 to 6.60
pIC50 [2]: 5.30 to 6.00

Cc1cc([C@@H](C)Nc2ccc(Cl)nc2C(=O)NS(C)(=O)=O)c2nc(N3CCC(c4ccnn4C4CC4)CC3)n(C)c(=O)c2c1 [Compound 501, (R)-6-chloro-3-((1-(2-(4-(1-cyclopropyl-1H-pyrazol-5-yl)piperidin-1-yl)-3,6-dimethyl-4-oxo-3,4-dihydroquinazolin-8-yl)ethyl)amino)-N-(methylsulfonyl) picolinamide]
pIC50 [1]: > 6.60
pIC50 [2]: 5.30 to 6.00

Cc1cnc([C@H]2[C@@H]3CN(c4nc5c([C@@H](C)Nc6ccc(Cl)nc6C(=O)NS(C)(=O)=O)cc(C)cc5c(=O)n4C)C[C@@H]32)nc1 [Compound 502, 6-chloro-3-(((R)-1-(3,6-dimethyl-2-((1R,5S,6R)-6-(5-methylpyrimidin-2-yl)-3-azabicyclo[3.1.0]hexan-3-yl)-4-oxo-3,4-dihydroquinazolin-8-yl)ethyl)amino)-N-(methylsulfonyl) picolinamide]
pIC50 [1]: 6.30 to 6.60
pIC50 [2]: 5.30 to 6.00

Cc1cc([C@@H](C)Nc2ccc(Cl)nc2C(=O)NS(C)(=O)=O)c2nc(N3CCC(c4csc(C)n4)CC3)n(C)c(=O)c2c1 [Compound 503, (R)-6-chloro-3-((1-(3,6-dimethyl-2-(4-(2-methylthiazol-4-yl)piperidin-1-yl)-4-oxo-3,4-dihydroquinazolin-8-yl)ethyl)amino)-N-(methylsulfonyl) picolinamide]
pIC50 [1]: > 6.60
pIC50 [2]: 5.30 to 6.00

Cc1cc([C@@H](C)Nc2ccc(Cl)nc2C(=O)NS(C)(=O)=O)c2nc(N3CCC(c4ncc(C(F)F)cn4)CC3)n(C)c(=O)c2c1 [Compound 504, (R)-6-chloro-3-((1-(2-(4-(5-(difluoromethyl)pyrimidin-2-yl)piperidin-1-yl)-3,6-dimethyl-4-oxo-3,4-dihydroquinazolin-8-yl)ethyl)amino)-N-(methylsulfonyl) picolinamide]
pIC50 [1]: > 6.60
pIC50 [2]: 5.30 to 6.00

Cc1cc([C@@H](C)Nc2ccc(Cl)nc2C(=O)NS(C)(=O)=O)c2nc(N3CCC(c4nn(C5CC5)cc4F)CC3)n(C)c(=O)c2c1 [Compound 505, (R)-6-chloro-3-((1-(2-(4-(1-cyclopropyl-4-fluoro-1H-pyrazol-3-yl)piperidin-1-yl)-3,6-dimethyl-4-oxo-3,4-dihydroquinazolin-8-yl)ethyl)amino)-N-(methylsulfonyl) picolinamide]
pIC50 [1]: 6.30 to 6.60
pIC50 [2]: ≤ 5.30

Cc1cc([C@@H](C)Nc2ccc(Cl)nc2C(=O)NS(C)(=O)=O)c2nc(N3CCC(c4nn(C)nc4C)CC3)n(C)c(=O)c2c1 [Compound 506, (R)-6-chloro-3-((1-(2-(4-(2,5-dimethyl-2H-1,2,3-triazol-4-yl)piperidin-1-yl)-3,6-dimethyl-4-oxo-3,4-dihydroquinazolin-8-yl)ethyl)amino)-N-(methylsulfonyl) picolinamide]
pIC50 [1]: > 6.60
pIC50 [2]: 5.30 to 6.00
